Assay results published in US20240050524A1, “DELIVERY OF ABETA VARIANTS FOR AGGREGATION INHIBITION” (Baylor College of Medicine, priority 2020, published 2024).
“Also recorded” adds a separate entry of the source.

Test system: γ-secretase
Assay: Dependence of Aβ release from transfected N2a cells on γ-secretase activity (IP/immunoblot of conditioned media)
Assay type: cell-based, murine
Conditions: 'KK' minimal construct; 0.1 or 1 nM
Experimental: Collection of Aβ peptides from N2a conditioned media. N2a cells were grown in 6 well plates using Dulbecco's modified Eagle's medium (DMEM) (#12-604F, VWR) supplemented with […] penicillin/streptomycin and 10% fetal bovine serum until approximately 90% confluent. […] Twenty-four hours later, cells were washed with 1×Dulbecco's PBS, and a serum-reduced medium consisting of DMEM and 0.2% fetal bovine serum was added before the cells were returned to 5% CO2 at 37° C. Conditioned media was harvested 24 hr later and centrifuged at 10,000 rpm for 5 min at 4° C. (2 ml/well×3 wells per IP reaction). To test the dependence of Aβ release on γ-secretase activity, cells were transfected as above, with the subsequent media replacement including 0.1 or 1 nM of LY411575 (#SML0506, Sigma). Supernatants were collected and supplemented with protease inhibitors (#5892970001, Sigma) and 0.01% NaN3 (#S2002, Sigma) to prevent proteolytic degradation.
Aβ IP from conditioned media for immunoblot. Protein G Dynabeads (50 μl, #10003D, Fisher) were loaded with mouse anti-Aβ antibody 6E10 (1 ug, #SIG-39320, BioLegend, San Diego, CA) for 1 hr at RT. […] Antibody binding was detected using […] secondary antibody conjugated with IRDye, diluted 1:20,000 in block (#26-32210, LI-COR, Lincoln, NE). Blots were imaged with an Odyssey Fc Imager and analyzed with Image Studio software (LI-COR).

C[C@H](NC(=O)[C@@H](O)c1cc(F)cc(F)c1)C(=O)N[C@@H]1C(=O)N(C)c2ccccc2-c2ccccc21 [LY411575]
block of Aβ secretion into the media: blocked release of variant Aβ into the media in a concentration-dependent manner; also recorded: blocked in a dose-dependent manner
